{
  "source": "paper PMC3429506",
  "about": "“Screening for Novel LRRK2 Inhibitors Using a High-Throughput TR-FRET Cellular Assay for LRRK2 Ser935 Phosphorylation” (PLoS ONE, 2012)",
  "key": {"LRRK2-GFP [1]": {"molecular_target": "T1, LRRK2-GFP (Homo sapiens, UniProt Q5S007, G2019S)", "T1 construct": "GFP is fused to the C-terminus of full-length human LRRK2 wild-type, G2019S, R1441C and kinase-dead D1994A; host or cells: U-2 OS cells transduced with BacMam", "T1 sequence (Q5S007 whole entry G2019S, the tested form may be a part)": "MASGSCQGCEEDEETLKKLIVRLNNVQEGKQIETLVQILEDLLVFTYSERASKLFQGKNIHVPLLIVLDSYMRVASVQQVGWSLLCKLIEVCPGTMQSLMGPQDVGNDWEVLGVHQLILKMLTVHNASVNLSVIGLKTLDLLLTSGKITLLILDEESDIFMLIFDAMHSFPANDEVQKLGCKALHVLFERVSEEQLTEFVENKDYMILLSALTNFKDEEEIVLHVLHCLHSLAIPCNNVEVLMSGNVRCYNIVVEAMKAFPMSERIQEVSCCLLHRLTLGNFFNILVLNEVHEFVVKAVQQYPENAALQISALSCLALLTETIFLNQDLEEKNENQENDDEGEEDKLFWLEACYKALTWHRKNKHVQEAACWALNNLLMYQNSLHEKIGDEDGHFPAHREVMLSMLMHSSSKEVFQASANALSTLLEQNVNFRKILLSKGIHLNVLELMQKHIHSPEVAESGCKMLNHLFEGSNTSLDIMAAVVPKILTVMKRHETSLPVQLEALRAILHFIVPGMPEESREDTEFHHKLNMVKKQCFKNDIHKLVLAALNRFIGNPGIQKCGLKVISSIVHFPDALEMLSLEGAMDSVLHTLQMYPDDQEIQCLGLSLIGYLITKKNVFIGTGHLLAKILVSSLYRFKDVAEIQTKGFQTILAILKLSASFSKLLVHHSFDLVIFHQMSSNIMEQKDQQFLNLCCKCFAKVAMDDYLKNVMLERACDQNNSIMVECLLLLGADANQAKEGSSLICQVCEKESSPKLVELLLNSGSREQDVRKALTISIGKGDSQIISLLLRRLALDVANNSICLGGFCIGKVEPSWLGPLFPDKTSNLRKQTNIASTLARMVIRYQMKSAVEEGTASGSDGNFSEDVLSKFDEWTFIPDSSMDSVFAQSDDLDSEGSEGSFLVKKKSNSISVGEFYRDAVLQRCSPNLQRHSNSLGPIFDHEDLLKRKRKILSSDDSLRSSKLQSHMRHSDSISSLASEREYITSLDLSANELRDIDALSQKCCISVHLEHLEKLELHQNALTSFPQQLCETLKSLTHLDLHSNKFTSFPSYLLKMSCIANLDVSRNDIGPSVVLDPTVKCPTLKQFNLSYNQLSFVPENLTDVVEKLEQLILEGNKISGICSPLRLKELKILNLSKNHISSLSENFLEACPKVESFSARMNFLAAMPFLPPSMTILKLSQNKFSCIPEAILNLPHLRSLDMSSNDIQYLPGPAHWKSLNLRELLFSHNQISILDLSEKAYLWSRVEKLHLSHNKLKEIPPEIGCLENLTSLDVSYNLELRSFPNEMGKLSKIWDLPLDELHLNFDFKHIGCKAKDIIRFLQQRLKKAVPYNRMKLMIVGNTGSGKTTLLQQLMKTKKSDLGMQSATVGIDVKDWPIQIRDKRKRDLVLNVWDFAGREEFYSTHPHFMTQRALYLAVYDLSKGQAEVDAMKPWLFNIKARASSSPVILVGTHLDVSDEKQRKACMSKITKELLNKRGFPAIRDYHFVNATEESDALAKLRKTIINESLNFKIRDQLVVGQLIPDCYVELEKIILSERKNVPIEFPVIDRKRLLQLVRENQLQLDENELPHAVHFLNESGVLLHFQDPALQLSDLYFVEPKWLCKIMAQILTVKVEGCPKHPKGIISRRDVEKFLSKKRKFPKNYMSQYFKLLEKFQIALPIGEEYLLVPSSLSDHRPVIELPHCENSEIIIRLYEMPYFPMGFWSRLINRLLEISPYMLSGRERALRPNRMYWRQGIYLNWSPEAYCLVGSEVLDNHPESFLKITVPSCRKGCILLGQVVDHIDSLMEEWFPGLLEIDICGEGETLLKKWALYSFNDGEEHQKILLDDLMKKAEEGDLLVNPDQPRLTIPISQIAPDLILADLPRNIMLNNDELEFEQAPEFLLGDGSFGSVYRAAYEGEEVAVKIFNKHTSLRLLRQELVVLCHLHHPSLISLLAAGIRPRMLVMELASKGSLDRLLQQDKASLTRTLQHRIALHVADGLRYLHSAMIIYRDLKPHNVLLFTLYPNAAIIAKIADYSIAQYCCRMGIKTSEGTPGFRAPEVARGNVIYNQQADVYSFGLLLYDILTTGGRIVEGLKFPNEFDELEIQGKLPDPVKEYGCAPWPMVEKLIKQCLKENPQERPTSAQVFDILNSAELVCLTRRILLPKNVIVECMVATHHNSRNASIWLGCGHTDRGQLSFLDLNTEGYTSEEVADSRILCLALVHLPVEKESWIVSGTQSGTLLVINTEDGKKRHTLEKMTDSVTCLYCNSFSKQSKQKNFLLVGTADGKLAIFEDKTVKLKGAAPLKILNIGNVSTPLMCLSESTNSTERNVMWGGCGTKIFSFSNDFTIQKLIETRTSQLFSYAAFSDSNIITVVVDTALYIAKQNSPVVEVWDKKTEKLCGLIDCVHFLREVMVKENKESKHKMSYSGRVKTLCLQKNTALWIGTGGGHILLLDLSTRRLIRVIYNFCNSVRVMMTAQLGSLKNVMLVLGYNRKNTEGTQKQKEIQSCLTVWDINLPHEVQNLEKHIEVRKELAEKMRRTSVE", "assay": "Western blot analysis of LRRK2-GFP phosphorylation in BacMam transduced U-2 OS cells", "format": "cell-based", "details": "BacMam LRRK2-GFP G2019S, 10 µM, Figure S1", "protocol": "(§1) Immunoblot analysis: BacMam LRRK2-GFP transduced U-2 OS or SH-SY5Y cells (10^7 cells) were left untreated or treated with 3 µM LRRK2-IN-I for 90 min. For lysate preparation, the cells were washed once with ice-cold PBS and lysed by addition of ice-cold lysis buffer (20 mM Tris-HCl, pH 7.4, 1% NP-40, 5 mM EDTA, 5 mM NaF, 150 mM NaCl, and 1∶100 of protease and phosphatase inhibitor cocktails). The lysate was cleared of debris by centrifugation. Equal amount of total protein was loaded onto each lane for SDS-PAGE (3–8% Tris Acetate). The proteins were transferred onto nitrocellulose membrane using the iBLOT® dry blotting system (Life Technologies) according to manufacturer’s protocol. The membranes were blocked and incubated with a primary antibody against LRRK2 (Cell Signaling Technologies), followed by incubation with alkaline phosphatase-conjugated secondary antibody (WesternBreeze® chromogenic Kit, Life Technologies). The blot was developed by using the chromogenic BCIP/NBT substrate (WesternBreeze® chromogenic Kit, Life Technologies). […]"}, "LRRK2-GFP [2]": {"system": "LRRK2-GFP", "assay": "Western blot analysis of LRRK2-GFP phosphorylation in BacMam transduced U-2 OS cells", "format": "cell-based, human", "details": "LRRK2-IN-1 3 µM 90 min, wild-type, G2019S, R1441C, Figure 1B", "protocol": "as §1"}, "LRRK2-GFP [3]": {"system": "LRRK2-GFP", "assay": "Western blot analysis of LRRK2-GFP Ser935 phosphorylation in BacMam transduced SH-SY5Y cells", "format": "cell-based, human", "details": "LRRK2-IN-1 3 µM 90 min, wild-type, G2019S, R1441C, Figure 3A", "protocol": "Immunoblot analysis: BacMam LRRK2-GFP transduced U-2 OS or SH-SY5Y cells (10^7 cells) were left untreated or treated with 3 µM LRRK2-IN-I for 90 min. For lysate preparation, the cells were washed once with ice-cold PBS and lysed by addition of ice-cold lysis buffer (20 mM Tris-HCl, pH 7.4, 1% NP-40, 5 mM EDTA, 5 mM NaF, 150 mM NaCl, and 1∶100 of protease and phosphatase inhibitor cocktails). The lysate was cleared of debris by centrifugation. Equal amount of total protein was loaded onto each lane for SDS-PAGE (3–8% Tris Acetate). The proteins were transferred onto nitrocellulose membrane using the iBLOT® dry blotting system (Life Technologies) according to manufacturer’s protocol. The membranes were blocked and incubated with a primary antibody against LRRK2 (Cell Signaling Technologies), followed by incubation with alkaline phosphatase-conjugated secondary antibody (WesternBreeze® chromogenic Kit, Life Technologies). The blot was developed by using the chromogenic BCIP/NBT substrate (WesternBreeze® chromogenic Kit, Life Technologies). […] Two days post induction, cells were treated for 90 minutes in the presence of 20 µM of compound or DMSO vehicle control. […]"}, "LRRK2 G2019S": {"molecular_target": "LRRK2 G2019S (Homo sapiens, UniProt Q5S007, G2019S)", "sequence (Q5S007 whole entry G2019S)": "as the sequence (Q5S007 whole entry G2019S, the tested form may be a part) above", "assay": "TR-FRET cellular assay for LRRK2 Ser935 phosphorylation, HEK293T cells, BacMam LRRK2-GFP G2019S", "design": "This high-throughput assay utilizes cells expressing full-length human LRRK2 with a C-terminal GFP tag (LRRK2-GFP); host or cells: HEK293T cells transduced with BacMam", "details": "+/- SD, three independent experiments, * = partial inhibition, read-out: IC50, TR-FRET cell-based assay for Ser935 phosphorylation of LRRK2", "protocol": "U-2 OS cells are maintained in growth medium (McCoy’s 5A supplemented with 10% dialyzed FBS (dFBS), 10 mM HEPES, 0.1 mM NEAA, 1 mM Sodium Pyruvate, and 100 U/mL Penicillin/100 µg/mL Streptomycin). HEK293T cells are maintained in DMEM with 10% dFBS, 10 mM HEPES, 0.1 mM NEAA and 100 U/mL Penicillin/100 µg/mL Streptomycin. SH-SY5Y cells are maintained in DMEM/F-12 medium supplemented with 10% dFBS and 100 U/mL Penicillin/100 µg/mL Streptomycin. […] GIBCO® human neural stem cells (hNSCs) were propagated as an adherent culture in StemPro® NSC SFM according to the manufacturer’s recommended protocol (Life Technologies). For BacMam transduction of U-2 OS and HEK293T, cells were harvested, mixed with various amounts of BacMam LRRK2-GFP reagent (v/v) and plated onto 6-well plates. […] Cells were assayed in 384-well format (∼20,000 cells/well) 48 hours post-transduction as above.\nTransduced cells in the 384-well assay plate were incubated with indicated inhibitors (5X, 5 µL/well) for 60 to 90 minutes. During this time, 6 X lysis buffer (Life Technologies) was supplemented with 30 nM Tb-labeled anti-LRRK2 pSer935 antibody and both protease and phosphatase inhibitor cocktails (Sigma). The complete 6 X lysis buffer was added to each well (5 µL/well) and the plates were incubated at room temperature in the dark for 2 hours. […] A sigmoidal dose-response equation with varying slope was used to fit the data and generate IC50 values. Z′-factor values were calculated as: Z′-factor = 1 - [(3 × stdevno virus +3 × stdevmaxvirus)/(avgmaxvirus – avgno-virus)]. The IC50 values reported in Table 1 are the averaged numbers from three independent experiments."}},
  "note": "pIC50: −log10 of the molar value.",
  "data": [
    {"smiles": "COc1cc(C(=O)N2CCC(N3CCN(C)CC3)CC2)ccc1Nc1ncc2c(n1)N(C)c1ccccc1C(=O)N2C", "note": "[LRRK2-IN-1]", "values": [
      {"measurement": "phosphorylation at Ser910, Ser935, Ser955 and Ser973 by immunoblot", "setting": "LRRK2-GFP [1]", "value": "responsive to LRRK2-IN-1 treatment"},
      {"measurement": "Ser935 phosphorylation by Western blot", "setting": "LRRK2-GFP [2]", "value": "diminished"},
      {"measurement": "Ser935 phosphorylation by Western blot", "setting": "LRRK2-GFP [3]", "value": "significantly reduced"},
      {"measurement": "pIC50", "setting": "LRRK2 G2019S", "value": 7.22}
    ]}
  ]
}
